Results published in US11207277B2, “Methods of treating diseases associated with high-fat diet and vitamin a deficiency using retinoic acid receptor agonists” (Cornell University, priority 2013, dated 2021).
“Also recorded” adds a separate entry of the source.

Legend:
c-peptide = experiment: c-peptide/glucagon immunofluorescence of pancreatic islets, HF-fed mice; assay type: in vivo
Protocol: Immunofluorescence assays on cells and tissue sections were performed as previously described (29). Briefly, differentiated samples were fixed using 4% (w/v) paraformaldehyde and membrane permeabilization (for cells only) was done with 0.3% (w/v) Triton-X 100 (Sigma). Unspecific sites were blocked using 2% BSA for 30 min prior to incubation with rabbit polyclonal anti-PDX1 (Millipore, 06-1379, 1:1000), rabbit anti-C-Peptide (Cell Signaling, 4593, 1:500, Danvers, Mass.) and mouse monoclonal anti-Glucagon (Abcam, ab10988, 1:200) primary antibodies. Phalloidin-TRITC (Millipore, FAK100, 1:1000, Billerica, Mass.) was used to stain the actin stress fiber network (F-actin). Nuclei were stained using DAPI contained in Vectashield® mounting medium for fluorescence (Vector labs, Burlingame, Calif.). Quantitation of C-peptide positive stained cells and islet surface area was performed using MS-Elements Advanced Research software (Nikon).
WT male C57/BL6 male mice were maintained on either a standard laboratory chow-fed diet (CFD) with 13% kcal fat, (diet #5053, Lab Diet, Inc, St. Louis, Mo.) or a high fat, western style diet (HFD) with 60% kcals from fat, (diet #58126, Lab Diet, Inc., St. Louis, Mo.) for 4 months. […]

[1] = test system: hepatocyte lipid accumulation; experiment: Hematoxylin and eosin staining of liver sections (hepatic steatosis); assay type: in vivo; settings: HF diet mice 4 months + AC261066 or CD1530; vs HF-vehicle
Source text: (§1) WT male C57/BL6 male mice were maintained on either a standard laboratory chow-fed diet (CFD) with 13% kcal fat, (diet #5053, Lab Diet, Inc, St. Louis, Mo.) or a high fat, western style diet (HFD) with 60% kcals from fat, (diet #58126, Lab Diet, Inc., St. Louis, Mo.) for 4 months. One month after the start of the high fat diet treatment, the high fat diet group was further split into 2 groups for 3 months: i) high fat diet and the drinking water containing 1% DMSO; ii) high fat diet and the drinking water containing 1.5 mg/100 ml AC261066, a specific RARβ agonist. Then mice were sacrificed by cervical dislocation. Blood and various tissue samples were harvested.
At sacrifice, fresh mouse liver samples were fixed in 4% formaldehyde solution for 24 hr and embedded in paraffin blocks. Liver paraffin sections were cut 5 microns thick and mounted on glass slides and stained with hematoxylin and eosin (H and E) using standard protocols.

TNF-α [2] = experiment: Semi-quantitative PCR liver, TNF-α; assay type: in vivo; settings: HF diet mice + AC261066 or CD1530
Source text: as §1
(§2) Total RNA was extracted from mouse tissues using TRIzol reagent (Life technologies) and (1 μg) was used to synthesize cDNA. cDNA synthesis was performed at 42° C. for 1 h in a final volume of 20 μl using qScript (Quanta, MD). Semi-quantitative PCR were performed Taq DNA polymerase (Invitrogen, CA). Three step PCR was run as follows: 94° C. for 30 s, 58-64° C. for 45 s for primer annealing and 72° C. for 1 min for primer extension. The number of cycles for each primer pair for amplification in the linear range was determined experimentally. PCR products were resolved 2% agarose gels and visualized by staining with ehtidium bromide. Primers for gene expression used were as follows: […]

[3] = test system: retinyl palmitate and retinol; experiment: HPLC analysis of liver retinoids; assay type: in vivo, mice
Source text: as §1
The frozen liver tissue samples (˜100 mg) were homogenized in 500 μl cold phosphate-buffered saline (PBS). In addition, 100 μl serum was diluted in cold PBS to total volume of 500 μl. Retinyl acetate was added to each sample before the retinoid extraction for the calculation of extraction efficiency. The retinoids were extracted into 350 μl of organic solution (acetonitrile/butanol, 50:50, v/v) in the dark. The high performance liquid chromatography (HPLC) was performed using a Waters Millennium system (Waters). Each sample (100 μl of the 350 μl) was loaded onto an analytical 5-μm reverse phase C18 column (Vydac, Hesperia, Calif.) and eluted at a flow rate of 1.5 ml/min. Two mobile phase gradient systems were used. Retinoids were identified by HPLC based on two criteria: an exact match of the retention times of unknown peaks with those of authentic retinoid standards and identical UV light spectra (220-400 nm) of unknowns against spectra from authentic retinoid standards during HPLC by the use of a photodiode array detector. The amounts of retinoids were calculated from the areas under the peaks detected at the wave-length of 325 nm. The levels of retinol and retinyl esters were normalized to the tissue weight.

4-hydroxynonenal (4-HNE) [4] = experiment: 4-HNE staining of liver sections; assay type: in vivo, mice; settings: HF diet + AC261066 vs HF diet group
Source text: as §1
(§3) Paraffin-embedded sections (from two to four mice per group) were deparaffinized and rehydrated, and antigen retrieval was performed using an antigen unmasking solution (Vector Laboratories, H-3300). After quenching endogenous peroxidase with 3% H2O2, the tissue sections were blocked with the blocking reagent (from the M.O.M. kit from Vector Laboratories). Then, tissue sections were incubated with a 4-HNE antibody (1:400; mouse monoclonal antibody; Abcam, ab48506) overnight at 4° C. The sections were then incubated with secondary antibodies (1:200, anti-mouse IgG from the M.O.M kit). As a negative control, sections were stained without incubation with primary antibodies. […]

renal lipids = experiment: Oil red O staining of kidney sections; assay type: in vivo; settings: HF diet mice + AC261066 vs HF vehicle
TNF-α [5] = experiment: Semi-quantitative PCR kidney, TNF-α; assay type: in vivo; settings: HF diet mice + AC261066
Source text: as §1
as §2, with “(Invitrogen.” for “(Invitrogen,”, “resolved on” for “resolved”

4-hydroxynonenal (4-HNE) [6] = experiment: 4-HNE staining of kidney sections; assay type: in vivo, mice; settings: HF diet + AC261066 vs HF diet group
Source text: as §1, §3

[7] = HF diet mice + AC261066 or CD1530 vs controls

`CCCCOCCOc1nc(-c2ccc(C(=O)O)c(F)c2)sc1C` [AC261066] was tested, and the “c-peptide level in pancreatic islets” value (c-peptide; HF diet + AC261066 vs HF diet mice) was “slightly reduces expression of c-peptide; also recorded: slightly decreased c-peptide level”, the “c-peptide staining in pancreatic islets” value (c-peptide; HF+AC261066 fed mice vs control diet controls) was “marked increase in c-peptide staining” and the “hepatocyte lipid infiltration / hepatic steatosis (H and E)” value [1] was “diminished hepatic steatosis; also recorded: prevent hepatic steatosis; also recorded: marked decreased hepatocyte lipid infiltration”. For the same molecule, the “mRNA levels of TNF-α in liver” value (TNF-α [2]) was “significantly diminish”, the “higher levels of retinyl palmitate in the livers compared to HF-vehicle treated mice” value ([3]; HF diet mice + AC261066) was 55% and the “liver retinol compared to controls” value [3, 7] was “significantly lowered”. The “liver retinyl palmitate compared to controls” value [3, 7] was “significantly lowered”, the “vitamin A deficiency in liver caused by high fat diet” value ([3]; HFD+AC261066) was “partially reversed” and the “4-HNE levels (oxidative stress) in liver” value (4-hydroxynonenal (4-HNE) [4]) was “reduces oxidative stress and ROS; also recorded: lower 4-HNE levels than those from the high fat diet group”. The “kidney lipid accumulation (oil red O)” value (renal lipids) was “comparably less oil red o positive areas”, the “mRNA levels of TNF-α in kidney” value (TNF-α [5]) was “reduces the levels of TNF-alpha” and the “4-HNE levels (oxidative stress) in kidneys” value (4-hydroxynonenal (4-HNE) [6]) was “reduces oxidative stress (ROS); also recorded: lower 4-HNE levels than those from the high fat diet group”.
